Test results: US9605000B2, “Spiro azetidine isoxazole derivatives and their use as SSTR antagonists” (Takeda Pharmaceutical Company Limited, priority 2013, dated 2017)

Assays:
[1] = molecular target: hERG (Homo sapiens, UniProt Q12809); assay: hERG activity measurement by IonWorks Quattro (Test Example 4); type: cell-based; conditions: 5 minutes exposure, CHO cells stably expressing hERG, IonWorks Quattro PPC mode
Method: hERG Activity Measurement by IonWorks Quattro
A cell strain CYL3038 having hERG stably expressed in CHO cells was purchased from Millipore LIMITED. A subculture of CYL3038 was prepared using Ham's F-12 medium containing 10% FBS and 500 μg/mL Geneticin, under the presence of 5% CO2 at 32° C. hERG current inhibition was measured by PPC mode of IonWorks Quattro (Molecular Devices, Inc.). As an extracellular fluid, PBS (+) was used. As an intracellular fluid, 20 mM HEPES buffer (pH 7.3) containing 140 mM KCl, 2 mM MgCl2 and 1 mM EGTA was used, and the cell was perforated by amphotericin. As the voltage protocol, holding potential was set to −80 mV, prepulsevoltage was set to 40 mV (2 seconds) and test pulsevoltage was set to −50 mV (2 seconds). Current values before and after addition of compound are respectively recorded as pre-compound hERG current and post-compound hERG current.

[2] = molecular target: T1, human SSTR5 (Homo sapiens, UniProt P35346); assay: Human SSTR5 antagonist activity using intracellular cAMP concentration as indicator (somatostatin 28, Test Example 2); type: cell-based; conditions: 1 μM test compound; somatostatin 28 and 0.3 μM forskolin; CHO (dhfr-) cells expressing human SSTR5; HTRF cAMP; read-out: Inhibition rate (%) with respect to SSTR5 in concentration of 1 μM
T1 construct: expressed in transfected cells
Method: Evaluation of Human SSTR5 Antagonist Activity Using an Intracellular cAMP Concentration as an Indicator
Measurement of the intracellular cAMP concentration was performed using a HTRF cAMP dynamic 2 kit (manufactured by Cisbio). A test compound which was diluted with an assay buffer (5 mM HEPES (pH 7.5) (manufactured by Invitrogen Corp.), 0.1% fatty-acid free BSA (manufactured by Sigma-Aldrich, Inc.), HBSS (manufactured by Invitrogen Corp.) containing 500 μM IBMX (manufactured by Wako Pure Chemical Industries, Ltd) was added by 2 μL/well to a 384 well white plate (manufactured by Greiner) such that a final concentration become 1 μM. A frozen stock, which was stably expressed dihydrofolate reductase-deficient CHO (dhfr-) cells in which human SSTR5 gene (Accession No. NM001053) was melted in a thermostatic chamber at 37° C., and it was suspended on a medium of subculture (medium prepared from MEM alpha (manufactured by Wako Pure Chemical Industries, Ltd.), 10% dialyzed serum (manufacture by Gemini Co., Ltd.) and 50 μg/mL gentamicin (manufactured by Invitrogen Corp.). After centrifuging the cell suspension, the cell suspension was resuspended using the assay buffer, and the resultant was added to each well by 2 μL/well to be 4000 cells/well. After a test compound and cells were incubated for 15 minutes. An assay buffer which contains 0.1 nM of somatostatin 28 (manufactured by Toray Research Center) and 0.3 μM of forskolin (manufactured by Wako Pure Chemical Industries, Ltd) as a final concentration was added by […], and incubation was performed for 30 minutes at room temperature. Each of cAMP-d2 and anti-cAMP-cryptate was added by 3 μL/well, it was allowed to stand for 60 minutes at room temperature, and FRET (Fluorescence resonance energy transfer) intensity was measured using Multi-label reader Envision (manufactured by Perkin Elmer Inc.). Using the calibration curve prepared from the FRET intensity of well groups in which cAMP as arbitrary concentration was added to an assay buffer, FRET intensity of wells in which a test compound group was added was converted into cAMP concentration. Inhibitory activity of compounds was calculated using the following equation. Inhibitory activity (%)=(C−B)/(A−B)×100 A: cAMP concentration calculated from wells in which 0.3 μM of forskolin is added B: cAMP concentration calculated from wells in which 0.3 μM of forskolin and 1 nM of somatostatin 28 are added C: cAMP concentration wells in which 0.3 μM of forskolin, 1 nM of somatostatin 28 and 1 μM of test compound are added
Inhibition rates (%) are described in Table 3 with respect to SSTR5 in concentration of 1 μM of a test compound.

[3] = tested on: C57BL/6J mice; assay: Evaluation of glucose lowering effect (oral glucose load in high fat diet fed mice, Test Example 3); type: in vivo; conditions: 3 mg/kg oral, male C57BL/6J mice on HFD, Mean ± SD, n = 6
Method: Evaluation of Glucose Lowering Effect
8-week-old male C57BL/6J mice were purchased from CLEA Japan, Inc. After feeding high fat diet (HFD; D12492, Research Diets, Inc.) for a week, weight of mice is measured a day before the experiment, and the mice were separated in groups based on the weight. On the day of experiment, vehicle (0.5% methyl cellulose solution) or test drug (0.5% methyl cellulose suspension) were orally administered 1 hour after fasting was started and glucose load was given orally 9 hours after fasting was started. Just before the glucose load, Blood Glucose (BG) was measured by drawing blood from the tail (pre), and BG was measured again from the tail 10 minutes, 30 minutes, 60 minutes and 120 minutes after the glucose load. All values were indicated with Mean±Standard Deviation (SD), and in the statistical analysis, Williams test was used for the case of equal variance and Shirley-Williams test was used for non-equal variance in the comparison of the vehicle group and test drug group.

T1 sequence (P35346 whole entry): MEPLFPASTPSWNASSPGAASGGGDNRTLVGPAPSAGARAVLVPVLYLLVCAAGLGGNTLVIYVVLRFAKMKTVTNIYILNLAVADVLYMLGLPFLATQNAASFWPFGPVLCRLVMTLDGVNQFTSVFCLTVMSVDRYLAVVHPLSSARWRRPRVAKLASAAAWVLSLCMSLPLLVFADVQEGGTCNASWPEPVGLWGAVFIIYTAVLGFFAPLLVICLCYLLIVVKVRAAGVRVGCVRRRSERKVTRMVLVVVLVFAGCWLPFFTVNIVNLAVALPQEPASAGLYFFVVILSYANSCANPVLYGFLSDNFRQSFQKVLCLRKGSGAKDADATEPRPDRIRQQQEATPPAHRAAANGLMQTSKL
Sequence of hERG (Q12809 whole entry): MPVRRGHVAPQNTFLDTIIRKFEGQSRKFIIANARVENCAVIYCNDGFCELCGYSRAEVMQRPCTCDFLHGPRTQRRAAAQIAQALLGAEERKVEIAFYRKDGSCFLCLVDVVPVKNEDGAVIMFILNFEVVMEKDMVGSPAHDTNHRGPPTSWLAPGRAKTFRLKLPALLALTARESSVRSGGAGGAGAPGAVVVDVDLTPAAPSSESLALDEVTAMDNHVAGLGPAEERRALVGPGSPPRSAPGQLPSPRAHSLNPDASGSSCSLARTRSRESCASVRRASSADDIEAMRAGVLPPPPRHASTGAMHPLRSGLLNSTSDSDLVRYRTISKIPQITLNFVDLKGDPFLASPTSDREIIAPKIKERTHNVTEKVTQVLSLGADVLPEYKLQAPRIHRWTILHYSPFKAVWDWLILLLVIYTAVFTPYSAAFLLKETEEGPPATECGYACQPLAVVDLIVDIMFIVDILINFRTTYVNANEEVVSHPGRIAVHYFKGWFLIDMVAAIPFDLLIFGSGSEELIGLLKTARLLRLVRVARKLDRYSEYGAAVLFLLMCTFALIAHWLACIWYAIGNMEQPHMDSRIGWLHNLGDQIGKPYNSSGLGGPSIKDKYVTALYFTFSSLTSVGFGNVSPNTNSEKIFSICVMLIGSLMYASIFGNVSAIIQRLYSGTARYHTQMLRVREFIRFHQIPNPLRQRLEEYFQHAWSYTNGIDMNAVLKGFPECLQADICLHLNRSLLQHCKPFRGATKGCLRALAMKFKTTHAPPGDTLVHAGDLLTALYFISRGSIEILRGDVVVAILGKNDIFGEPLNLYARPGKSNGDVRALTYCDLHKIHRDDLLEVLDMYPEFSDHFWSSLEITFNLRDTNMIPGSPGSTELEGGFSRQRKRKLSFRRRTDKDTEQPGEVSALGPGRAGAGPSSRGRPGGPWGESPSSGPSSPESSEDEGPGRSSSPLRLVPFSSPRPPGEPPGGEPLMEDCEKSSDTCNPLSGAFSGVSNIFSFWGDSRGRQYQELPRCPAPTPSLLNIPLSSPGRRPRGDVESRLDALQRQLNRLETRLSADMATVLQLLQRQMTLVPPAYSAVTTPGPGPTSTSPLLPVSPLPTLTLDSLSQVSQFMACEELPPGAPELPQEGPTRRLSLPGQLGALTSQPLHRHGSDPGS

| SMILES | % hERG inhibition (10 μM) [1] [%] | inhibition at 1 µM [2] [%] | Blood Glucose (BG) 10 min ([3]; 10 minutes after glucose load) | Blood Glucose (BG) 30 min ([3]; 30 minutes after glucose load) | Blood Glucose (BG) 60 min ([3]; 60 minutes after glucose load) | Blood Glucose (BG) 120 min ([3]; 120 minutes after glucose load) | AUCpre-120 min ([3]; blood glucose AUC pre to 120 min after glucose load) | Blood Glucose (BG) pre ([3]; just before glucose load) |
| --- | --- | --- | --- | --- | --- | --- | --- | --- |
| COc1c(CN2CC3(CC(N4CCC(C)(C(=O)O)CC4)=NO3)C2)cc(C2CC2)c(-c2ccc(F)cc2)c1F [Example 265, 1-(2-((6-Cyclopropyl-2,4′-difluoro-3-methoxybiphenyl-4-yl)methyl)-5-oxa-2,6-diazaspiro[3.4]oct-6-en-7-yl)-4-methylpiperidine-4-carboxylic acid] | 18 | 92 | – | – | – | – | – | – |
| COc1c(CN2CC3(CC(N4CCC(C)(C(=O)O)CC4)=NO3)C2)cc(C2CC2)c(-c2ccc(F)cc2)c1Cl [Example 238, 1-(2-((2-Chloro-6-cyclopropyl-4′-fluoro-3-methoxybiphenyl-4-yl)methyl)-5-oxa-2,6-diazaspiro[3.4]oct-6-en-7-yl)-4-methylpiperidine-4-carboxylic acid] | 10 | 99 | 261 ± 42 | 350 ± 49 | 345 ± 38 | 188 ± 22 | 576 ± 52 | 148 ± 19 |
